From EP2551257A1, “Co-crystals of agomelatine with co-crystal-formers” (Laboratorios del. Dr. Esteve, S.A., priority 2011, dated 2013)

Key:
[1] = Intrinsic Dissolution Rate (IDR) test, USP apparatus 2 (paddles); format: physicochemical; conditions: for Ratio: IDR of co-crystal relative to agomelatine; for IDR: 37°C, 100 rpm, 2 hours, calculated from slope of straight line
From the text: The aim of this study was to measure intrinsic dissolution rate (IDR) of some crystalline forms of the present invention in order to compare them with the IDR of the agomelatine. Intrinsic dissolution rate is defined as the dissolution rate of pure substance under the condition of constant surface area.
Figures 20 and 21 show the results of intrinsic dissolution rate performed with co-crystals obtained in examples 4 and 5. The IDR behaviour of agomelatine and the co-crystal of agomelatine - gentisic acid (1:1), agomelatine - citric acid (1:1) from the present invention was tested in USP apparatus 2 (paddles) at 37°C and 100 rpm with 2 hours in a solution of 0,1 N HCl (figure 20) and 2 hours in a buffer solution at pH 6.8 (figure 21). The intrinsic dissolution rate was calculated from the slope of the straight line obtained.

[2] = cited from earlier work
[3] = test system: α, β adrenergic, histaminergic, cholinergic, dopaminergic and benzodiazepine receptors; conditions: cited from earlier work
[4] = test system: monoamine uptake; conditions: cited from earlier work

Ratio ([1]; Media Buffer pH 6.8)	Ratio ([1]; Media HCl 0.1M)	IDR ([1]; Media Buffer pH 6.8) [mg/cm^2·s]	IDR ([1]; Media HCl 0.1M) [mg/cm^2·s]	Compound	solubility in various organic solvents ([2]; 96% ethanol, methanol, methylene chloride, freely soluble) [mg/mL]	solubility in purified water ([2]; purified water, practically insoluble)	affinity [3]	effect on monoamine uptake [4]
1.70	1.28	0.0453	0.0447	COc1ccc2cccc(CCNC(C)=O)c2c1 [agomelatine - gentisic acid (1:1) co-crystal]				
		0.0267	0.0349	COc1ccc2cccc(CCNC(C)=O)c2c1 [agomelatine, N-[2-(7-methoxynaphthalen-1-yl)ethyl]acetamide]	> 100	< 0,1 mg/ml	no affinity	no effect
1.76	1.92	0.0470	0.0670	COc1ccc2cccc(CCNC(C)=O)c2c1 [agomelatine-citric acid (1:1) co-crystal]				
